The supplement of paper PMC11451515

What was measured:
SEM cells [1] = test: cell viability relative to DMSO control; higher = less cytotoxic; conditions: 48 h
In short: (§1)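 NOMO1, SEM and P12-Ichikawa leukemia cells spent at least four passages adapting to each medium before use. They were seeded at 500 cells/well (NOMO1, SEM) or 1000 cells/well (P12-Ichikawa) in 5 μl in 1536-well plates and pin-dosed with library compounds in DMSO at 11 threefold steps from 47 μM down to 0.79 nM. After 48 h at 37°C, CellTiter-Glo One luminescence was read. Viability is reported as a percentage of the DMSO wells on each plate, with cell-free wells as background.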

P12-Ichikawa [2] = test: AUC of viability dose-response curve (% viability x log10 dose units); higher = less sensitive; conditions: 48 h
In short: (§2)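 Leukemia cells adapted to each medium were seeded in 1536-well plates (500 or 1000 cells/well) and given library compounds in DMSO for 48 h at 37°C. The 11 threefold doses spanned 47 μM to 0.79 nM, and CellTiter-Glo One luminescence was normalised per plate to DMSO and cell-free wells before four-parameter log-logistic fitting on log10 dose. Area under the curve was integrated with the trapezoidal rule, scaling curves above full viability and removing curves that failed quality control.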

NOMO1 [3] = test: as above; conditions: 48 h
In short: as §2

SEM cells [4] = test: as above; conditions: 48 h
In short: as §2

NOMO1 [5] = test: cell viability relative to DMSO control; higher = less cytotoxic; conditions: RPMI 5 mM glucose + 10% FBS, 48 h
In short: as §1

P12-Ichikawa [6] = test: as above; conditions: HPLM + 10% dialyzed FBS, 48 h
In short: as §1

C[C@@H]1C/C=C/C=C/C=C/C=C/[C@@H](O[C@@H]2O[C@H](C)[C@@H](O)[C@H](N)[C@@H]2O)C[C@@H]2O[C@](O)(C[C@@H](O)C[C@@H]3O[C@H]3/C=C/C(=O)O1)C[C@H](O)[C@H]2C(=O)O
SEM cells [1], HPLM + 10% dialyzed FBS
Conditions | cell viability [%]
0.000781 µM | 108
0.00234 µM | 120
0.00702 µM | 103
0.0211 µM | 129
0.0632 µM | 131
0.19 µM | 119
0.569 µM | 124
1.71 µM | 106
5.12 µM | 115
15.4 µM | 120
46.1 µM | 114

AUC of viability dose-response curve
Conditions | NOMO1 [3] | P12-Ichikawa [2] | SEM cells [4]
HPLM + 10% dialyzed FBS | 449 | 439 | 475
RPMI 5 mM glucose + 10% FBS | 460 | 466 | 461
RPMI 5 mM glucose + 10% dialyzed FBS | 457 | 461 | 462

CC(C)(O)CCc1ccc(OCc2cc(-c3cccc(OC(F)F)c3)c3ncccc3c2)cc1
SEM cells [1], HPLM + 10% dialyzed FBS
Conditions | cell viability [%]
0.000781 µM | 96
0.00234 µM | 98.7
0.00702 µM | 108
0.0211 µM | 118
0.0632 µM | 113
0.19 µM | 126
0.569 µM | 115
1.71 µM | 127
5.12 µM | 137
15.4 µM | 119
46.1 µM | 134

AUC of viability dose-response curve
Conditions | NOMO1 [3] | P12-Ichikawa [2] | SEM cells [4]
HPLM + 10% dialyzed FBS | 468 | 466 | 435
RPMI 5 mM glucose + 10% FBS | 457 | 457 | 445
RPMI 5 mM glucose + 10% dialyzed FBS | 460 | 456 | 469

CC1=CC=C2N=C(NC(=O)CS\C3=N\C4=C(\SCC4)C(=O)N3C5=CC=CC=C5)SC2=C1
AUC of viability dose-response curve
Conditions | HPLM + 10% dialyzed FBS | RPMI 5 mM glucose + 10% FBS | RPMI 5 mM glucose + 10% dialyzed FBS
P12-Ichikawa [2] | 444 | 430 | 435
SEM cells [4] | 424 | 421 | 446

C[C@]1(CO)CN(c2cc(C(=O)Nc3ccc4c(c3)-c3c(c(C(N)=O)nn3-c3ccc(F)cc3)CC4)c(Cl)cn2)C[C@@]1(C)CO
AUC of viability dose-response curve
Conditions | NOMO1 [3] | P12-Ichikawa [2] | SEM cells [4]
HPLM + 10% dialyzed FBS | 446 | 418 | 421
RPMI 5 mM glucose + 10% FBS | 457 | 423 | 317
RPMI 5 mM glucose + 10% dialyzed FBS | 445 | 422 | 422

O=C/1NC(=O)C(=C1C2=CN=C3C=CC=C[N]23)/C4=C[N]5CCN(CC6=C5C4=CC=C6)C(=O)N7CCOCC7
Conditions | AUC of viability dose-response curve | cell viability [%]
NOMO1 [3], HPLM + 10% dialyzed FBS | 470 | –
NOMO1 [3], RPMI 5 mM glucose + 10% FBS | 465 | –
NOMO1 [3], RPMI 5 mM glucose + 10% dialyzed FBS | 462 | –
NOMO1 [5], 0.000781 µM | – | 109
NOMO1 [5], 0.00234 µM | – | 121
NOMO1 [5], 0.00702 µM | – | 137
NOMO1 [5], 0.0211 µM | – | 136
NOMO1 [5], 0.0632 µM | – | 140
NOMO1 [5], 0.19 µM | – | 146
NOMO1 [5], 0.569 µM | – | 144
NOMO1 [5], 1.71 µM | – | 127
NOMO1 [5], 5.12 µM | – | 144
NOMO1 [5], 15.4 µM | – | 128
NOMO1 [5], 46.1 µM | – | 144
P12-Ichikawa [2], HPLM + 10% dialyzed FBS | 334 | –
P12-Ichikawa [2], RPMI 5 mM glucose + 10% FBS | 301 | –
P12-Ichikawa [2], RPMI 5 mM glucose + 10% dialyzed FBS | 370 | –
SEM cells [4], HPLM + 10% dialyzed FBS | 138 | –
SEM cells [4], RPMI 5 mM glucose + 10% FBS | 153 | –
SEM cells [4], RPMI 5 mM glucose + 10% dialyzed FBS | 151 | –

cell viability [%], SEM cells [1]
Conditions | HPLM + 10% dialyzed FBS | RPMI 5 mM glucose + 10% FBS | RPMI 5 mM glucose + 10% dialyzed FBS
0.000781 µM | 111 | 96.7 | 101
0.00234 µM | 104 | 106 | 102
0.00702 µM | 62.9 | 65.2 | 63.8
0.0211 µM | 14.5 | 17.9 | 22.2
0.0632 µM | 14.7 | 14.7 | 17.1
0.19 µM | 14.1 | 16.1 | 13.1
0.569 µM | 13.7 | 15 | 16.3
1.71 µM | 11.3 | 12.4 | 14
5.12 µM | 10.6 | 13.8 | 14.6
15.4 µM | 9.94 | 13.1 | 11.1
46.1 µM | 10.3 | 12.8 | 10.6

COc1cc(CCc2cc(NC(=O)c3ccc(N4C[C@@H](C)N[C@@H](C)C4)cc3)n[nH]2)cc(OC)c1
Conditions | AUC of viability dose-response curve | cell viability [%]
NOMO1 [3], HPLM + 10% dialyzed FBS | 442 | –
NOMO1 [3], RPMI 5 mM glucose + 10% FBS | 466 | –
NOMO1 [3], RPMI 5 mM glucose + 10% dialyzed FBS | 455 | –
P12-Ichikawa [2], HPLM + 10% dialyzed FBS | 448 | –
P12-Ichikawa [2], RPMI 5 mM glucose + 10% FBS | 435 | –
P12-Ichikawa [2], RPMI 5 mM glucose + 10% dialyzed FBS | 414 | –
P12-Ichikawa [6], 0.000781 µM | – | 124
P12-Ichikawa [6], 0.00234 µM | – | 136
P12-Ichikawa [6], 0.00702 µM | – | 118
P12-Ichikawa [6], 0.0211 µM | – | 130
P12-Ichikawa [6], 0.0632 µM | – | 123
P12-Ichikawa [6], 0.19 µM | – | 121
P12-Ichikawa [6], 0.569 µM | – | 120
P12-Ichikawa [6], 1.71 µM | – | 119
P12-Ichikawa [6], 5.12 µM | – | 109
P12-Ichikawa [6], 15.4 µM | – | 107
P12-Ichikawa [6], 46.1 µM | – | 90
SEM cells [4], HPLM + 10% dialyzed FBS | 333 | –
SEM cells [4], RPMI 5 mM glucose + 10% FBS | 319 | –
SEM cells [4], RPMI 5 mM glucose + 10% dialyzed FBS | 332 | –

cell viability [%], SEM cells [1]
Conditions | HPLM + 10% dialyzed FBS | RPMI 5 mM glucose + 10% FBS | RPMI 5 mM glucose + 10% dialyzed FBS
0.000781 µM | 109 | 111 | 122
0.00234 µM | 125 | 113 | 122
0.00702 µM | 131 | 117 | 124
0.0211 µM | 128 | 123 | 125
0.0632 µM | 127 | 96.1 | 101
0.19 µM | 52 | 47.8 | 52.1
0.569 µM | 85.8 | 80.7 | 96.2
1.71 µM | 77 | 66.2 | 87.7
5.12 µM | 64.4 | 63.5 | 64.1
15.4 µM | 29.8 | 29.7 | 31.6
46.1 µM | 18 | 19.5 | 18.5

CC(C)(O)[C@H]1CC[C@@](C)([C@H]2[C@@H](O)C[C@@]3(C)[C@@H]4C[C@H](O[C@@H]5O[C@H](CO)[C@@H](O)[C@H](O)[C@H]5O)[C@H]5C(C)(C)[C@@H](O[C@@H]6OC[C@@H](O)[C@H](O)[C@H]6O)CC[C@@]56C[C@@]46CC[C@]23C)O1
cell viability [%], SEM cells [1]
Conditions | HPLM + 10% dialyzed FBS | RPMI 5 mM glucose + 10% FBS
0.000781 µM | 118 | 119
0.00234 µM | 118 | 123
0.00702 µM | 121 | 133
0.0211 µM | 124 | 120
0.0632 µM | 128 | 124
0.19 µM | 126 | 123
0.569 µM | 129 | 130
1.71 µM | 117 | 121
5.12 µM | 89.2 | 108
15.4 µM | 109 | 105
46.1 µM | 106 | 128

AUC of viability dose-response curve
Conditions | NOMO1 [3] | P12-Ichikawa [2] | SEM cells [4]
HPLM + 10% dialyzed FBS | 464 | 456 | 454
RPMI 5 mM glucose + 10% FBS | 446 | 451 | 465
RPMI 5 mM glucose + 10% dialyzed FBS | 449 | 450 | 466

CC(C)(C)c1nc(-c2cccc(N[S+](=O)([O-])c3c(F)cccc3F)c2F)c(-c2ccnc(N)n2)s1
AUC of viability dose-response curve
Conditions | NOMO1 [3] | P12-Ichikawa [2] | SEM cells [4]
HPLM + 10% dialyzed FBS | 423 | 428 | 439
RPMI 5 mM glucose + 10% FBS | 447 | 409 | 430
RPMI 5 mM glucose + 10% dialyzed FBS | 434 | 385 | 425

Cc1nc(NC(=O)N2CCC[C@H]2C(N)=O)sc1-c1csc(C(C)(C)C)n1
AUC of viability dose-response curve
Conditions | NOMO1 [3] | P12-Ichikawa [2] | SEM cells [4]
HPLM + 10% dialyzed FBS | 323 | 331 | 309
RPMI 5 mM glucose + 10% FBS | 346 | 334 | 302
RPMI 5 mM glucose + 10% dialyzed FBS | 335 | 350 | 312
